{"source": "paper PMC12282092", "about": "“Discovery of a non-nucleoside inhibitor that binds to a novel site in the palm domain of the respiratory syncytial virus RNA-dependent RNA polymerase” (Journal of Virology, 2025)", "key": {"[1]": {"test_system": "RSV replicon in APC-126 cells", "assay": "APC-126 minireplicon assay", "type": "cell-based", "settings": "human respiratory syncytial virus, APC-126, 72 h", "description": "(§1) A proprietary BHK-based cell line, APC-126, harboring the RSV replicon, was obtained from Apath (New York, USA) and cultured in DMEM/Ham’s F-12 50/50, supplemented with 10% (vol/vol) FBS (Gibco), 1% (vol/vol) penicillin-streptomycin (Gibco), 1% (vol/vol) MEM non-essential amino acids (Gibco), 5% (vol/vol) Tryptose Phosphate Broth (Sigma-Aldrich), and 10 µg/mL blasticidin (Invitrogen) at 37°C in a humidified 5% CO2 incubator ([36]). Cells were plated (3,500 cells/well) in white, 96-well, clear-bottom plates (Corning) and incubated for 24 h. Compound serial dilutions (9 point, threefold) were prepared in DMSO and diluted 10-fold in culture media before treating cells (final [DMSO] = 1% [vol/vol]). […] In parallel, cytotoxicity was measured using CellTiter-Glo (Promega) under the same conditions. […] Figures were prepared with GraphPad Prism."}, "HeLa cells [2]": {"test_system": "HeLa cells", "settings": "HeLa cytotoxicity"}, "RSV L+P-JNJ-7184 complex": {"molecular_target": "T1, RSV L+P-JNJ-7184 complex (Human respiratory syncytial virus A, UniProt P28887)", "T1 construct": "a biophysical SPR assay was established using full-length RSV L+P complex; Twin-Strep-tag (N); made in house; host or cells: Sf9 insect cells (baculovirus)", "T1 sequence (P03421 whole entry, the tested form may be a part)": "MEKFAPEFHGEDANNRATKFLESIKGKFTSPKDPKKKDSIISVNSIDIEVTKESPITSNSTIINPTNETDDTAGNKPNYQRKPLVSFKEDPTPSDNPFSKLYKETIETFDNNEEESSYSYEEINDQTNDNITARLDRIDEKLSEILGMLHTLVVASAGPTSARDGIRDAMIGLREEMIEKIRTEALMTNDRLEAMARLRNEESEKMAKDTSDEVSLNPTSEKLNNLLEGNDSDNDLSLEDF", "T1 sequence (P28887 whole entry, the tested form may be a part)": "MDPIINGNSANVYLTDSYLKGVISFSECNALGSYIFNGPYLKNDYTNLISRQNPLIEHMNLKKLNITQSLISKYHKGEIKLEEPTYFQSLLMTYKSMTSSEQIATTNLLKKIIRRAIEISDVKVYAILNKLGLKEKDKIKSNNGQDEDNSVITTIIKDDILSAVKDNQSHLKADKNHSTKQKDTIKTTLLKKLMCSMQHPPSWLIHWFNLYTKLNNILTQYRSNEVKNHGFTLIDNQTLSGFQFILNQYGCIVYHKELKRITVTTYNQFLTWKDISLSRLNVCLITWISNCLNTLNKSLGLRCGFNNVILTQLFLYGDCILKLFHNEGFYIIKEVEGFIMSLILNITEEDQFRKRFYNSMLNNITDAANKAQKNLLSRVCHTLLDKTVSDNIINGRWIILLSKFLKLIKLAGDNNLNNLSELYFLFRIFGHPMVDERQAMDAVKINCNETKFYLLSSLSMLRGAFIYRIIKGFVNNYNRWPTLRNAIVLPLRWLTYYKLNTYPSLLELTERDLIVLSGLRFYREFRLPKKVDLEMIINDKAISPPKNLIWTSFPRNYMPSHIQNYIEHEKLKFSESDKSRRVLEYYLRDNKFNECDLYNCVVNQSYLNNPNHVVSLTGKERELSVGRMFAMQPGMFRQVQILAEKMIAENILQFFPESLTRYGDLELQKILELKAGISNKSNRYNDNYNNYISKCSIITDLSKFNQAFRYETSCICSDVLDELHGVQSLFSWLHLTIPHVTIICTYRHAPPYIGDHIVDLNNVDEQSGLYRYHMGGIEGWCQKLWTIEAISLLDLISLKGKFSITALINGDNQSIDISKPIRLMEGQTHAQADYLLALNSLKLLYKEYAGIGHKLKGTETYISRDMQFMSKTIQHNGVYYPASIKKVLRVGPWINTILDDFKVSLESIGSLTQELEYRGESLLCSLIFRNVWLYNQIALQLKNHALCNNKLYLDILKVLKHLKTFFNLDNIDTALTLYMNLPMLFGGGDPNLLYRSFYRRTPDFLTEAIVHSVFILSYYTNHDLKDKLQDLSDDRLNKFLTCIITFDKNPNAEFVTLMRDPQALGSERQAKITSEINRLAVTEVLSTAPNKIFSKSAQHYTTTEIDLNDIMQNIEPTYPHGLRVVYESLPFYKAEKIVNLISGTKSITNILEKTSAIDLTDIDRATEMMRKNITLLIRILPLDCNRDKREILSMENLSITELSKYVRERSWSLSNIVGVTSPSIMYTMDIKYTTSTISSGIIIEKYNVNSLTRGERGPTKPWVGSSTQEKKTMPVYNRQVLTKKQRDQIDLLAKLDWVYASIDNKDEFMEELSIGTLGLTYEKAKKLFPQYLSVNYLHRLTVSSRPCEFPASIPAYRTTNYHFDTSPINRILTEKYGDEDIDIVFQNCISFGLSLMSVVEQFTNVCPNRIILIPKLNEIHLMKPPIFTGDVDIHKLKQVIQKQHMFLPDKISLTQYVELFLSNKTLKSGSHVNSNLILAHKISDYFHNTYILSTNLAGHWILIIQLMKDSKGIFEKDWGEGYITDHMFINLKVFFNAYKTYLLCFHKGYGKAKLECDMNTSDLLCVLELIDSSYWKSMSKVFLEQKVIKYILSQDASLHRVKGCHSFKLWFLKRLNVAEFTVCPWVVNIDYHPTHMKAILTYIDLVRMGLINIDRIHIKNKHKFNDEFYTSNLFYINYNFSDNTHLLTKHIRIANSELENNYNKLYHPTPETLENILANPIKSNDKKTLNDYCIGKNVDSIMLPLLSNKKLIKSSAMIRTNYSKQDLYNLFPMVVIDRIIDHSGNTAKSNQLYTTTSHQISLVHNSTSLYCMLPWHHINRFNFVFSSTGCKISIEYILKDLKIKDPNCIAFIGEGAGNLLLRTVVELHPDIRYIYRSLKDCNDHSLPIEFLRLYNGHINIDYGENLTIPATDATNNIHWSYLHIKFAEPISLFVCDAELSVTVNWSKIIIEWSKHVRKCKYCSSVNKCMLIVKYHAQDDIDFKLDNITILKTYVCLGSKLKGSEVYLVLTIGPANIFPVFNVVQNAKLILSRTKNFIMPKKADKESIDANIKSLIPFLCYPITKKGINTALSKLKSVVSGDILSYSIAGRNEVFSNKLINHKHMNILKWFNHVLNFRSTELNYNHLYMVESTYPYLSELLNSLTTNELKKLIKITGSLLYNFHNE", "assay": "SPR A-B-A competition with connector domain binder JNJ-7184", "type": "binding", "settings": "150 nM JNJ-7184 competitor", "description": "(§2) Here, the competitor was held at a constant concentration (60 nM for JNJ-8003 and 150 nM for JNJ-7184) during baseline acquisition, association, and dissociation of the test compound.\n(§3) The Biacore A-B-A injection method was used to assess compound binding competition. RSVpol was immobilized as above. […] Dissociation of any bound 22 was then measured for 500 s in the presence of a competitor. The temperature was 25°C, and the flow rate was kept at 30 µL/min."}, "[3]": {"molecular_target": "human mitochondrial RNA polymerase (POLRMT) (Homo sapiens, UniProt O00411)", "assay": "POLRMT assay"}, "RSV L+P [4]": {"molecular_target": "T2, RSV L+P (Human respiratory syncytial virus A, UniProt P28887)", "T2 construct": "Biochemical activity of 1 and 22 against full-length RSV L+P; Twin-Strep-tag (N); made in house; host or cells: Sf9 insect cells (baculovirus, pFastBac Dual)", "T2 sequence (P03421 whole entry)": "as the sequence (P03421 whole entry, the tested form may be a part) above", "T2 sequence (P28887 whole entry)": "as the sequence (P28887 whole entry, the tested form may be a part) above", "assay": "Single-nucleotide incorporation (primer extension) assays", "type": "biochemical", "settings": "50 µM 22, primers AC, ACG, ACGA, ACGAG", "description": "Reactions were initiated by the addition of 100 nM [α-^32P]NTP (3,000 Ci/mmol) tracer and run for an additional 30 min before quenching with an equal volume of gel loading buffer (90% formamide, 50 mM EDTA, 0.05% Xylene Cyanol and Bromophenol Blue). Gel images were obtained and processed as described for the de novo assay, and data were normalized to untreated controls to determine percent inhibition."}, "[5]": {"assay": "APC-126 cytotoxicity assay (CellTiter-Glo)", "type": "cell-based", "settings": "hamster; APC-126, 72 h; read-out: Replicon CC50", "description": "as §1"}, "RSV L+P [6]": {"molecular_target": "T2, RSV L+P", "assay": "SPR assay", "type": "binding", "settings": "25°C", "protocol": "A Biacore Series S SA (Cytiva) chip is first derivatized by a 60 s injection of 50 µg/mL Tris NTA-biotin (synthesized in-house). The chip was further conditioned by a 60 s injection of 350 mM EDTA (Cytiva, 28995043) followed by a 60 s injection of 0.5 mM NiCl2 (Cytiva, 28995043). Purified human, recombinant His-tagged RSV L+P protein (C-terminal 8× His) was captured via a 1,200 s injection at 30 µg/mL to obtain immobilization levels of 8,000–9,000 RU. The surface was then blocked with a 60 s injection of 100 µM PEG-biotin (Thermo Scientific). The experiments were performed at 25°C, using a Biacore 8K+ (Cytiva) and running buffer: 10 mM HEPES, 300 mM NaCl, 10 mM MgCl2, pH 7.4, 5% glycerol, 2% DMSO, 0.005% p20, 0.5 mM TCEP. […] Reference and buffer-blank subtracted data were analyzed with the Biacore 8K Insight Evaluation Software and fit to a 1:1 Langmuir model to obtain KD values and binding kinetics."}, "[7]": {"assay": "Metabolic stability in liver microsomes", "settings": "in vitro intrinsic clearance in human liver microsomes, n = 1"}, "HeLa cells [8]": {"test_system": "HeLa cells", "assay": "HeLa cytotoxicity assay (ATPlite)", "settings": "HeLa cells", "description": "(§4) Compound serial dilutions (9 point, fourfold) were prepared in DMSO, and 200 nL was transferred to black, 384-well, clear-bottom microtiter plates (Corning, Amsterdam, The Netherlands) via acoustic drop ejection ([36], [50]). […] Then, 20 µL of a HeLa cell suspension (3,000 cells/well) was added with a Multidrop Combi, and cells were incubated at 37°C in a 5% CO2 atmosphere. After 72 h, GFP expression was quantified using an EnVision Multimode Plate Reader (Perkin Elmer, Zaventem, Belgium), and data were normalized to untreated and media-only (no virus) controls. Cytotoxicity was determined in parallel using the ATPlite kit (Perkin Elmer, Zaventem, Belgium). Luminescence was measured in white, 384-well microtiter plates (Corning) on a ViewLux uHTS Microplate Imager apparatus (PerkinElmer, Zaventem, Belgium), and cellular ATP content was quantified by normalizing to untreated and media-only (no cell) controls. […] Figures were prepared with GraphPad Prism."}, "[9]": {"assay": "HeLa cytotoxicity assay (ATPlite)", "settings": "human, HeLa cells", "description": "as §4"}, "RSV L+P-JNJ-8003 complex": {"molecular_target": "T3, RSV L+P-JNJ-8003 complex (Human respiratory syncytial virus A, UniProt P28887)", "T3 construct": "a biophysical SPR assay was established using full-length RSV L+P complex; Twin-Strep-tag (N); made in house; host or cells: Sf9 insect cells (baculovirus)", "assay": "SPR A-B-A competition with capping domain binder JNJ-8003", "type": "binding", "settings": "60 nM JNJ-8003 competitor", "description": "as §2, §3"}, "[10]": {"test_system": "rgRSV224 virus (RSV A2) in HeLa cells", "assay": "HeLa cell rgRSV224 eGFP reporter viral proliferation assay", "type": "cell-based", "settings": "RSV eGFP phenotypic assay in HeLa cells; for EC50: MOI 1, 72 h, n ≥ 2, read-out: Cellular EC50", "description": "as §4"}, "RSV L+P [11]": {"molecular_target": "T2, RSV L+P", "assay": "Yonetani-Theorell mutual exclusivity analysis", "type": "biochemical", "protocol": "Here, matrix titrations of the two inhibitors were carried out, and initial rates were determined for each inhibitor combination. Data were fitted to the Yonetani-Theorell equation (Supp. equation S1) to determine the interaction constant, γ. […] When γ > 1, binding is antagonistic, and as γ approaches infinity, the ligands are considered mutually exclusive. Conversely, when γ < 1, binding is synergistic."}, "in vitro": {"assay": "in vitro", "settings": "human"}, "RSV L+P [12]": {"molecular_target": "T2, RSV L+P", "assay": "Pyrophosphate luminescence detection assay, full-length RSV L+P", "type": "biochemical", "settings": "pyrophosphate luminescence detection assay", "protocol": "Working solutions (3×) of RSV L+P (60 nM), substrate (30 µM each of GTP, CTP, UTP, 300 µM ATPαS [Jena Bioscience], 15 µM RNA template TrC-25), detection reagents (6 nM Luciferase, 900 µM luciferin, 3 U/µL ATP Sulfurylase [BioVision], 15 µM adenosine phosphosulfate [APS], 3 mM coenzyme A), were prepared in complete assay buffer. Compounds were dissolved in dimethyl sulfoxide (DMSO) and dispensed to white, 1536-well cyclic olefin copolymer (COC) plates (Corning, 9145BC) using an Echo Acoustic Liquid Handler (Beckman Coulter, San Jose, CA). Substrate (1 µL) and detection reagents (1 µL) were dispensed using a Multidrop Combi Dispenser (ThermoFisher, Waltham, MA), followed by enzyme (1 µL) to initiate the reaction. Final screening concentrations were 20 nM RSV L+P, 10 µM GTP/CTP/UTP, 100 µM ATPαS, 5 µM TrC-25, 2 nM Luciferase (Promega), 300 µM luciferin (Promega), 1 U/µL ATP sulfurylase, 5 µM APS, and 1 mM CoA. […] Luminescence was detected using the PHERAStar FSX (BMG Labtech, Ortenberg, Germany)."}, "RSV L+P [13]": {"molecular_target": "T2, RSV L+P", "assay": "Mode of inhibition by progress curve analysis", "type": "biochemical", "description": "To determine the mode of inhibition, progress curve analysis was carried out with the full-length complex."}, "RSV-B/05_036549": {"test_system": "RSV-B/05_036549", "assay": "microbe, parasite or virus in culture", "type": "cell-based", "settings": "human respiratory syncytial virus; RSV-B/05_036549, HeLa cells, RT-qPCR"}, "RSV L+P [14]": {"molecular_target": "T2, RSV L+P", "assay": "De novo RNA synthesis assay (TrC-14, +3 site)", "type": "biochemical", "settings": "TrC-14 template", "description": "The reaction was quenched by an equal volume of gel loading buffer consisting of 90% formamide and 50 mM EDTA. Samples were heated to 95°C for 5 min, resolved on a 22.5% polyacrylamide urea sequencing gel at 80 W, and then transferred to Whatman cellulose chromatography paper (Millipore Sigma). The gel was dried for 1 h on a gel dryer (Bio-Rad), exposed to a phosphor screen, and imaged using a Typhoon phosphorimager (GE Healthcare)."}, "RSV-A/Long": {"test_system": "RSV-A/Long", "assay": "microbe, parasite or virus in culture", "type": "cell-based", "settings": "human respiratory syncytial virus, HeLa cells, RT-qPCR"}, "RSV-A/A2": {"test_system": "RSV-A/A2", "assay": "microbe, parasite or virus in culture", "type": "cell-based", "settings": "human respiratory syncytial virus; RSV-A/A2, HeLa cells, RT-qPCR"}, "RSV-B/Wash/18537": {"test_system": "RSV-B/Wash/18537", "assay": "microbe, parasite or virus in culture", "type": "cell-based", "settings": "human respiratory syncytial virus; RSV-B/Wash/18537, HeLa cells, RT-qPCR"}}, "note": "Like-named read-outs stand apart in the source and are kept apart here.", "data": [{"compound": "CN1C(=O)C2(CCN(c3cnc(C#N)c(Cl)c3)CC2)c2cc(Br)ccc21", "note": "[Compound 22, 5-(5-bromo-1-methyl-2-oxospiro[indoline-3,4'-piperidin]-1'-yl)-3-chloropicolinonitrile]", "values": [{"measurement": "EC50", "setting": "[1]", "value": 2220, "unit": "nM"}, {"measurement": "CC50", "setting": "HeLa cells [2]; line RSV-A/A2", "value": "> 50", "unit": "µM"}, {"measurement": "CC50", "setting": "HeLa cells [2]; line RSV-A/Long", "value": "> 50", "unit": "µM"}, {"measurement": "CC50", "setting": "HeLa cells [2]; line RSV-B/Wash/18537", "value": "> 50", "unit": "µM"}, {"measurement": "SPR ka in the presence of JNJ-7184", "setting": "RSV L+P-JNJ-7184 complex", "value": 140000, "unit": "M⁻¹ s⁻¹"}, {"measurement": "SPR kd in the presence of JNJ-7184", "setting": "RSV L+P-JNJ-7184 complex", "value": 0.0725, "unit": "s⁻¹"}, {"measurement": "Kd", "setting": "RSV L+P-JNJ-7184 complex; read-out: SPR KD in the presence of JNJ-7184", "value": 520, "unit": "nM"}, {"measurement": "IC50", "setting": "[3]", "value": "> 100", "unit": "µM"}, {"measurement": "inhibition of primer extension, TrC-14 template", "setting": "RSV L+P [4]", "value": "inhibited"}, {"measurement": "CC50 at 72 h", "setting": "[5]", "value": "> 50", "unit": "µM"}, {"measurement": "SPR kd", "setting": "RSV L+P [6]; immobilized RSV L+P", "value": 0.0609, "unit": "s⁻¹"}, {"measurement": "Kd", "setting": "RSV L+P [6]; immobilized full-length RSV L+P", "value": 470, "unit": "nM"}, {"measurement": "HLM CLint", "setting": "[7]", "value": "10.9 µL/min/mg microsomal protein"}, {"measurement": "Cytotoxicity Emax", "setting": "HeLa cells [8]", "value": 12.8, "unit": "%"}, {"measurement": "CC50 at 72 h", "setting": "[9]", "value": "> 50", "unit": "µM"}, {"measurement": "SPR ka in the presence of JNJ-8003", "setting": "RSV L+P-JNJ-8003 complex", "value": 119000, "unit": "M⁻¹ s⁻¹"}, {"measurement": "SPR kd in the presence of JNJ-8003", "setting": "RSV L+P-JNJ-8003 complex", "value": 0.0628, "unit": "s⁻¹"}, {"measurement": "Kd", "setting": "RSV L+P-JNJ-8003 complex; read-out: SPR KD in the presence of JNJ-8003", "value": 530, "unit": "nM"}, {"measurement": "EC50", "setting": "[10]", "value": 2380, "unit": "nM"}, {"measurement": "EC50", "setting": "[10]; human respiratory syncytial virus, HeLa, 72 h", "value": 2280, "unit": "nM"}, {"measurement": "Emax", "setting": "[10]; human respiratory syncytial virus, read-out: Cellular Emax", "value": 94, "unit": "%"}, {"measurement": "Yonetani-Theorell interaction constant γ", "setting": "RSV L+P [11]; 22 titrated with capping domain inhibitor compound 23", "value": "1.1 ± 0.2"}, {"measurement": "Yonetani-Theorell interaction constant γ", "setting": "RSV L+P [11]; 22 titrated with connector domain inhibitor compound 24", "value": "0.88 ± 0.72"}, {"measurement": "CC50", "setting": "in vitro", "value": "> 50", "unit": "µM"}, {"measurement": "IC50", "setting": "RSV L+P [12]; full-length RSV L+P, n ≥ 2, read-out: Biochemical IC50", "value": 270, "unit": "nM"}, {"measurement": "Emax", "setting": "RSV L+P [12]; read-out: Biochemical Emax", "value": 105, "unit": "%"}, {"measurement": "α (mixed model inhibition) with respect to UTP", "setting": "RSV L+P [13]; mixed noncompetitive/uncompetitive", "value": "0.33 ± 0.27"}, {"measurement": "α with respect to TrC-25 RNA template", "setting": "RSV L+P [13]; noncompetitive", "value": "1.1 ± 0.6"}, {"measurement": "EC50", "setting": "RSV-B/05_036549", "value": 1000, "unit": "nM"}, {"measurement": "maximal inhibition of pppGA formation", "setting": "RSV L+P [14]; +3 site", "value": 85, "unit": "%"}, {"measurement": "IC50", "setting": "RSV L+P [14]; +3 site, read-out: IC50 of de novo pppGA (pppGpA) formation", "value": 290, "unit": "nM"}, {"measurement": "IC50", "setting": "RSV L+P [14]; IC50 of 11-mer product", "value": 480, "unit": "nM"}, {"measurement": "maximal inhibition of 11-mer product", "setting": "RSV L+P [14]", "value": 71, "unit": "%"}, {"measurement": "EC50", "setting": "RSV-A/Long", "value": 970, "unit": "nM"}, {"measurement": "EC50", "setting": "RSV-A/A2", "value": 1100, "unit": "nM"}, {"measurement": "EC50", "setting": "RSV-B/Wash/18537", "value": 2700, "unit": "nM"}]}]}
